Data from patent US11767313B2, “Compounds as nuclear transport modulators and uses thereof” (XWPHARMA LTD., priority 2018, dated 2023).
pIC50: −log10 of the molar value.

Legend:
A549 = experiment: CellTiter-Glo cell proliferation assay, A549; format: cell-based; details: Homo sapiens, 72 hours, Table 1, read-out: Growth inhibition (IC50)
Procedure: (§1) CellTiter-Glo® Luminescent Cell Viability assay (with Promega CellTiter 96® Luminescent CellTiter-Glo® kit) was used to study the proliferation inhibition by test compounds. Compounds were resuspended in DMSO to make a 25 mM stock suspension. Cells of cancer cell lines or normal tissues were seeded in 96-well plates at 1,500 to 5,000 cells/well overnight. Compounds were 2- or 3-fold diluted serially to obtain 10 concentrations. Then, the drugs were added to the cell wells by Bravo (Agilent) and incubated for 72 hours. The cells were lysed by adding CellTiter-Glo® Reagent (per manufacturer's instructions) and subsequently, the luminescence was read using EnVision® (PerkinElmer).
(§2) The percent of growth was calculated as follows. DMSO-treated cells were employed as vehicle control (High control, HC) and culture medium alone was employed as background (Low control, EC). % growth=100×(Lum sample−Lum EC)/(Lum HC−Lum EC). The ICso was calculated by concentration-response curve fitting using Graphpad Prism.
(§3) Hematological cancer cell lines tested included OCI-AML3, MV-4-11, KG-1, Kasumi-1, K562, THP-1; solid cancer cell lines tested included U87MG, U251, T98G, LN229, A172, H460, H2009, A549; normal cell lines tested included HCN2 and 3T3-L1. […] However, they were not toxic to in vitro cultured normal cells.

H2009 = experiment: CellTiter-Glo cell proliferation assay, H2009; format: cell-based; details: Homo sapiens, NCI-H2009, 72 hours, Table 1, read-out: Growth inhibition (IC50)
Procedure: as §1, §2, §3

A-172 = experiment: CellTiter-Glo cell viability assay, A-172; format: cell-based; details: Homo sapiens, Table 6
Procedure: as §1, §2
The inhibition activity of test compounds was determined in A-172, U87MG and 3T3-L1 cell lines.
A CellTiter-Glo® luminescent cell viability assay was performed s described in Example 1.

HCT116 = experiment: Cytotoxicity, cell proliferation assay, HCT116 colon cancer; format: cell-based; details: Table 8
Procedure: as §1, §2
(§4) The cytotoxicity of test compounds in brain (HCN2), colon cancer (HCT116) and normal colon cell (C8-B4) lines was determined using the cell proliferation assay as described in Example 19.

C8-B4 = experiment: Cytotoxicity, cell proliferation assay, C8-B4; format: cell-based; details: Table 8
Procedure: as §1, §2, §4

[1] = mouse, in vivo, po
[2] = Pharmacokinetic profile in plasma; format: in vivo; details: mouse, iv, I. V., mice
XPO1 = XPO1 (Homo sapiens, UniProt O14980); experiment: Compound washout assay in REV-GFP cells; details: for XPO1 inhibition post washout: 400 nM (EC90); for effect on nuclear retention of REV: at EC50 (120 nM)
Procedure: In order to evaluate the duration of XPO1 inhibition by test compounds on XPO1 protein after washout, washout assay was performed using REV-GFP cells. The test compounds and positive control were added to the cell well, and the plate was incubated the at 37° C. and 5% CO2 for 1 h. The drug-containing media were removed, the cells were washed, and the fresh media were added. The cells were imagined at the specified time points 0, 4, 24, 48, 72, and 96 hours to evaluate the inhibition of REV nuclear export. […] 4A. […] 4B. […] 4C.

U87MG-luc tumor = experiment: U87MG-luc human glioblastoma orthotopic model; format: in vivo; details: 20 mg/kg orally, 3 times/week, 4 weeks
Text: Animals: Female BALB/c Nude mice (Supplied by Beijing AniKeeper Biotech Co., Ltd., 6-8 weeks old/18-22 g) were used. General procedures for animal care and using were in accordance with the standard operating procedures (SOPs) of Pharmaron, Inc.
Grouping and Treatments: Grouping and treatment were started on Day 7 post tumor cells inoculation. Mice were imaged to monitor the tumor growth, then mice were randomly assigned to respective groups using a computer-generated randomization procedure. All test articles were administered orally 20 mg/kg with 3 times/week, for 4 weeks post tumor implantations (n=12 per group).
Cell Culture: The Human glioblastoma U87-luc tumor cell line was maintained in vitro as monolayer culture and used for tumor inoculation
Tumor Inoculation and Randomization: 2.5×10^5 luciferase-expressing U87MG-luc tumor cells suspended in 2 μL MEM medium were injected into the right forebrain by positioning the needle at AP: 2.0 mm, ML: 0.5-1.0 mm, DV: 3.0 mm from bregma. The injection was slowly proceeding over a one-minute period. Upon completing injection, the needle was retained for another minute. Measurement Parameters: Tumor growth (monitored by image analysis), body weight and survival days were recorded.
Termination Criterion: Individual animal was humanely sacrificed by carbon dioxide when body weight loss >20% and animals could not get to adequate food or water.
Statistical Analysis: Data was recorded as means±standard error of the mean for all measurement parameters as study designed. All statistical tests were conducted by SPSS 17.0 statistical software, and the level of significance is set at p<0.05.

Ki67 = experiment: PD effects by IHC in U87MG-luc orthotopic model, Ki67; format: in vivo, mice; details: orally three times a week for 2 weeks; vs vehicle control
Procedure: Based on the bioluminescent signal of tumor, mice were randomly assigned to respective groups using a computer-generated randomization procedure, which included vehicle and compound III-treated groups, respectively, with 5 animals per group. Compound III (20 mg/kg) was given orally 3 times a week (on Day 1, 3, 5) for 2 weeks. Animals for IHC study were euthanized at 6 hours after the last dose and perfused with normal saline followed by fixation with 4% paraformaldehyde. Entire brains containing tumors were collected and kept in fixative for 24 hours before proceeding for paraffin block.

Sequence of XPO1 (O14980 whole entry): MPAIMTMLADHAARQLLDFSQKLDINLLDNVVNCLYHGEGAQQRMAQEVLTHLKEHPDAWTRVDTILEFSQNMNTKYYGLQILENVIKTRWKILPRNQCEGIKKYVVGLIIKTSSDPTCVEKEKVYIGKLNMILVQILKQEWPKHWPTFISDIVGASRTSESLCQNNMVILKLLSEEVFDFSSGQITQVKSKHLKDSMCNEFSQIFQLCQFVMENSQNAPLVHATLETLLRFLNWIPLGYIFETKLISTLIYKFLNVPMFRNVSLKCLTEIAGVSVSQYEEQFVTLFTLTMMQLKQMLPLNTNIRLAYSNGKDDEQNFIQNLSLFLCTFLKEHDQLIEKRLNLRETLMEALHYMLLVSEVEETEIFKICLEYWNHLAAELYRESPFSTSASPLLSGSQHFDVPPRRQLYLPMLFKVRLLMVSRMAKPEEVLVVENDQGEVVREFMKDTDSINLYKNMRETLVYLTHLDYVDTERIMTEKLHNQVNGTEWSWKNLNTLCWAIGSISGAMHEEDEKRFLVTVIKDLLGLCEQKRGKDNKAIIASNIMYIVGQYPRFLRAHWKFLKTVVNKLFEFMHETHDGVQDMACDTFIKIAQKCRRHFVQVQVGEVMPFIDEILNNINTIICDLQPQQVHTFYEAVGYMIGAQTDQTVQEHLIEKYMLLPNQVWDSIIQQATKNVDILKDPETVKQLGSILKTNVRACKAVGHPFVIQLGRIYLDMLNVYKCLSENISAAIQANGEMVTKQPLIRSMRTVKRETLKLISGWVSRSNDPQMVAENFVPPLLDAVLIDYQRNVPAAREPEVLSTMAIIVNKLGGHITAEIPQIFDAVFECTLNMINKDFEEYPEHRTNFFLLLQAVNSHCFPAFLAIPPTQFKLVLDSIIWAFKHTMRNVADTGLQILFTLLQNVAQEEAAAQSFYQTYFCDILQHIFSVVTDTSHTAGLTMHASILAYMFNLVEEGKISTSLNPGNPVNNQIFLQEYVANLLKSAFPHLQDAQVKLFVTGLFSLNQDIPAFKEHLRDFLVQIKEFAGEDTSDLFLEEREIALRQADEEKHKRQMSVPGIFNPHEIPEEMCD

SMILES: O=C(/C=C\n1cnc(-c2cc(C(F)(F)F)cc(S(F)(F)(F)(F)F)c2)n1)NNc1cnccn1 [Compound I, (Z)-3-(3-(3-(pentafluorosulfanyl)-5-(trifluoromethyl)phenyl)-1H-1,2,4-triazol-1-yl)-N′-(pyrazin-2-yl)acrylohydrazide]
- pIC50 (A549): 5.83
- pIC50 (H2009): 6.28
- pIC50 (A-172): 6.39
- pIC50 (HCT116; Homo sapiens, HCT-116): 5.22
- HCT116 Max % inh (HCT116): 88%
- pIC50 (C8-B4; C8-B4): 5.37
- C8-B4 Max % inh (C8-B4): 91%
- survival in MTD study [1]: survived
- AUC(0-t) [2]: 1040 ng·h/mL
- C0 [2]: 1010 ng/mL
- clearance [2]: 16 mL/min/kg
- half-life [2]: 1.62 h
- MRT last ([2]; read-out: MRT0-last): 1.56 h
- Vd ([2]; read-out: Vdss): 1.68 L/kg

SMILES: CC(C)(C)C(=O)NNC(=O)/C=C\n1cnc(-c2cc(C(F)(F)F)cc(S(F)(F)(F)(F)F)c2)n1 [Compound III, (Z)-3-(3-(3-(Pentafluorosulfanyl)-5-(trifluoromethyl)phenyl)-1H-1,2,4-triazol-1-yl)-N′-pivaloylacrylohydrazide]
- XPO1 inhibition post washout (XPO1; 4 hours post washout): sustained XPO1 inhibition
- XPO1 inhibition post washout (XPO1; by 24 hours post washout): gradually diminished
- effect on nuclear retention of REV (XPO1; 4 hours post washout): 20%
- effect on nuclear retention of REV (XPO1; 24 hours post washout): completely lost
- effect on nuclear retention of REV (XPO1; following 1-hour treatment): about 40%
- toxicity / cell number compared to the control (XPO1; washout assay): no decrease in the cell number was observed
- bodyweight loss (individual animal) (U87MG-luc tumor): less than 10%
- medium survival time (MST) (U87MG-luc tumor): 47 days
- tolerability (U87MG-luc tumor): well tolerated by most animals
- reduction in bioluminescence signal compared with the vehicle control group (U87MG-luc tumor; end of treatment period): 99%
- expression of Ki67 in tumors (IHC) (Ki67): significantly decreased
